Reference: PMC6273913, “New α-Methylene-γ-Butyrolactone Derivatives as Potential Fungicidal Agents: Design, Synthesis and Antifungal Activities” (Molecules, 2016)
Where two headings read alike, the source gives them in different places.

Columns and labels:
[1] = system: C. lagenarium; test: Spore germination assay, fungicidal activity against C. lagenarium; type: cell-based, Colletotrichum lagenarium; conditions: Colletotrichum orbiculare
Procedure: (§1) The fungal pathogens C. lagenarium and B. cinerea was provided by the Agricultural Culture Collection of China (Yangling, Shaanxi, China). C. lagenarium was cultured for 2 weeks at 25 ± 1 °C on potato dextrose agar (PDA) while B. cinerea was cultured at 20 °C on the same medium after being retrieved from the storage tube. Plates were flooded with sterile distilled water, and then conidia were scraped with a glass rod. Mycelial debris was removed by filtration. The spores were harvested and suspended in sterile distilled water containing 0.1% (v/v) Tween 20. The concentration of the spore suspension was adjusted to 1.0 × 10^6 spores/mL with sterilized distilled water following.
(§2) The tested samples (10.0 mg) dissolved in acetone (0.1 mL) were diluted with sterile distilled water to prepare 10.0 mL stock solution, which was further diluted to prepare test solutions in which the final concentration of acetone was <1% (v/v). A series of concentrations of tested samples and one control (1% acetone with sterile distilled water) were separately tested for spore germination of C. lagenarium or B. cinerea. The samples were inoculated with spore suspension of C. lagenarium or B. cinerea containing 1.0 × 10^6 spores/mL. Aliquots of 10 μL of prepared spore suspension were placed on separate glass slides in triplicate. Slides containing the spores were incubated in a moisture chamber at 25 °C for 6~8 h. Each slide was then observed under the microscope for spore germination. Spores were considered to have germinated if the length of the germ tube was at least half the length of the spore. Afterward, spore germination was stopped by applying a drop of lactophenol-cotton blue to the inoculation sites on plates. The numbers of generated spores were counted under a microscope (Olympus BX61, Tokyo, Japan), and the percentage of germinated spores was calculated. Chlorothalonil was used as the positive control.

[2] = system: B. cinerea; test: Spore germination assay, fungicidal activity against B. cinerea; type: cell-based, Botrytis cinerea; conditions: Botrytis cinerea, in vitro, n = 3
Procedure: as §1, §2

[3] = system: HepG2 cell line; test: Cytotoxic activity against human tumor cells line (HepG2); type: cell-based
[4] = Table 1, from IC50 in μM, read-out: pIC50, C. lagenarium (converted)
[5] = Table 2, fungicidal activity against C. lagenarium used for QSAR, read-out: pIC50 (converted)
[6] = Table 4, experimental, C. lagenarium, read-out: Exp. pIC50 (converted)
[7] = in vitro, spore germination, n = 3, read-out: IC50, C. lagenarium

Structure (SMILES)	IC50 [1, 4] [µM]	IC50 [1, 5] [µM]	IC50 [1, 6] [µM]	IC50 [1, 7] [µM]	IC50 [2] [µM]	melting point [°C]	IC50 ([1]; Table 6, read-out: IC50 (μM) (against C. lagenarium)) [µM]	IC50 [3] [µM]
C=C1CC(c2ccc(OC(=O)c3ccccc3Br)cc2)OC1=O (stereo not shown) [Compound 4d, 4-[4-(2-Bromobenzoyloxy)phenyl]-2-methylenebutyrolactone]	15.6	15.6	15.6	15.6	24.1	174.5 to 174.9		
C=C1CC(c2ccc(OC(=O)c3ccc(Br)cc3)cc2)OC1=O (stereo not shown) [Compound 4f, 4-[4-(4-Bromobenzoyloxy)phenyl]-2-methylenebutyrolactone]	14.4	14.4	14.4	14.4	23	175.1 to 175.6		
C=C1CC(c2ccc(OC(=O)c3cccc(C#N)c3)cc2)OC1=O (stereo not shown) [Compound 4g, 4-[4-(3-Benzonitrile)phenyl]-2-methylenebutyrolactone]	52.8	52.8	52.8	52.9	60.6		52.9	18.3
C=C1CC(c2ccc(OC(=O)c3ccccc3C)cc2)OC1=O (stereo not shown) [Compound 4j, 4-[4-(2-Methylbenzoyloxy)phenyl]-2-methylenebutyrolactone]	192	192	192	192	199	189.6 to 190.1		
C=C1CC(c2ccc(OC(=O)c3ccc(C)cc3)cc2)OC1=O (stereo not shown) [Compound 4l, 4-[4-(4-Methylbenzoyloxy)phenyl]-2-methylenebutyrolactone]	189	189	189	189	209	184.5 to 185.1		
C=C1CC(c2ccc(OC(=O)c3ccccc3OC)cc2)OC1=O (stereo not shown) [Compound 4m, 4-[4-(2-Methoxylbenzoyloxy)phenyl]-2-methylenebutyrolactone]	239	239	239	239	243	179.8 to 180.4		
C=C1CC(c2ccc(OC(=O)c3cccc(OC)c3)cc2)OC1=O (stereo not shown) [Compound 4n, 4-[4-(3-Methoxylbenzoyloxy)phenyl]-2-methylenebutyrolactone]	212	212	212	212	224	185.7 to 186.2		
C=C1CC(c2ccccc2OC(=O)c2ccc(Cl)cc2)OC1=O (stereo not shown) [Compound 5b, 4-[2-(4-Chlorobenzoyloxy)phenyl]-2-methylenebutyrolactone]	17.7	17.7	17.7	17.7	34.5	208.7 to 209.3		
C=C1CC(c2ccccc2OC(=O)c2ccccc2Br)OC1=O (stereo not shown) [Compound 5c, 4-[2-(2-Bromobenzoyloxy)phenyl]-2-methylenebutyrolactone]	15.9	15.9	15.9	15.9	34.6	204.6 to 205.1		
C=C1CC(c2ccccc2OC(=O)c2ccc(Br)cc2)OC1=O (stereo not shown) [Compound 5e, 4-[2-(4-Bromobenzoyloxy)phenyl]-2-methylenebutyrolactone]	15.3	15.3	15.3	15.3	36.1	184.7 to 185.2		
C=C1CC(c2ccccc2OC(=O)c2ccccc2)OC1=O (stereo not shown) [Compound 5g, 4-(2-Benzoyloxyphenyl)-2-methylenebutyrolactone]	171	171	171	171	194	166.3 to 167		
C=C1CC(c2ccccc2OC(=O)c2ccccc2C)OC1=O (stereo not shown) [Compound 5h, 4-[2-(2-Methylbenzoyloxy)phenyl]-2-methylenebutyrolactone]	216	216	216	216	229	172.8 to 173.4		
C=C1CC(c2ccccc2OC(=O)c2ccc(C)cc2)OC1=O (stereo not shown) [Compound 5j, 4-[2-(4-Methylbenzoyloxy)phenyl]-2-methylenebutyrolactone]	207	207	207	208	259	181.2 to 181.6		
C=C1CC(c2ccccc2OC(=O)c2ccccc2OC)OC1=O (stereo not shown) [Compound 5k, 4-[2-(2-Methoxylbenzoyloxy)phenyl]-2-methylenebutyrolactone]	292	292	292	292	307	177.8 to 178.6		
C=C1CC(c2cccc(OC(=O)c3ccc(Cl)cc3)c2)OC1=O (stereo not shown) [Compound 6b, 4-[3-(4-Chlorobenzoyloxy)phenyl]-2-methylenebutyrolactone]	9.25	9.25	9.25	9.24	29.1	209.8 to 210.5		
C=C1CC(c2cccc(OC(=O)c3ccccc3Br)c2)OC1=O (stereo not shown) [Compound 6c, 4-[3-(2-Bromobenzoyloxy)phenyl]-2-methylenebutyrolactone]	10.3	10.3	10.3	10.3	27.4	175.3 to 175.8		
C=C1CC(c2cccc(OC(=O)c3ccc(Br)cc3)c2)OC1=O (stereo not shown) [Compound 6e, 4-[3-(4-Bromobenzoyloxy)phenyl]-2-methylenebutyrolactone]	9.71	9.71	9.71	9.7	27.2	168.6 to 169.4		
C=C1CC(c2cccc(OC(=O)c3cccc(C)c3)c2)OC1=O (stereo not shown) [Compound 6h, 4-[3-(3-Methylbenzoyloxy)phenyl]-2-methylenebutyrolactone]	126	126	126	126	148	177.6 to 178.2		
C=C1CC(c2cccc(OC(=O)c3ccc(C)cc3)c2)OC1=O (stereo not shown) [Compound 6i, 4-[3-(4-Methylbenzoyloxy)phenyl]-2-methylenebutyrolactone]	136	136	136	137	164	168.5 to 168.9		
C=C1CC(c2cccc(OC(=O)c3ccccc3OC)c2)OC1=O (stereo not shown) [Compound 6j, 4-[3-(2-Methoxylbenzoyloxy)phenyl]-2-methylenebutyrolactone]	162	162	162	162	196	172.3 to 172.8		
C=C1CC(c2cccc(OC(=O)c3cccc(OC)c3)c2)OC1=O (stereo not shown) [Compound 6k, 4-[3-(3-Methoxybenzoyloxy)phenyl]-2-methylenebutyrolactone]	136	136	136	136	161	183.7 to 184.2		
